Measured values taken from patent US20100240746A1, “STEREOISOMERS OF TRICYCLODECAN-9-YL-XANTHOGENATE” (LUMAVITA AG, priority 2007, published 2010).
Values after ≈ are worked out from the molar mass of the structure shown.

Assays:
[1] = system: HPV-31 specific DNA; assay: Long-term study: HPV-31 specific DNA level (Southern blot); format: cell-based, human papilloma virus; conditions: for T50 DNA: at 10 μg/mL
Description: (§1) HPV-31 infected cells (3×10^6) were dispensed into 14.5 cm dishes containing fresh E medium and 1×10^6 cells of mitomycin C-treated 3T3 fibroblast feeders. The dishes were incubated in a CO2 incubator under 5% CO2 at 37° C. in 100% humidity. Human A431 epithelial cancer cells were used as HPV-uninfected negative controls. After 6 hr incubation, the cell culture medium was removed and fresh E medium containing 0.85 g/L NaHCO3 and a test compound at concentrations of 10 and 3.3 μg/mL, or control (interferon γ at 200 IU/mL) were added. For each concentration, 4 dishes were prepared. The dishes were incubated at 37° C. in a CO2 incubator. The culture medium was replaced to new E medium containing each concentration of the test compound or control in every 72 hrs. After seven days, or when untreated cells became confluent, one dish of each group was harvested for DNA/RNA extraction, followed by Southern/Northern Blot analysis; and one dish was trypsinized, cell number were determined and cells were seeded in three new dishes, treated and cultured as described above. This procedure was repeated for 9 passages. During these passages, morphology of cells and cell density were monitored.
(§2) Effect on HPV-31 specific DNA and RNA: DNA and RNA were analyzed in Southern and Northern Blot gels for HPV-31 specific sequences. X-ray films were scanned and optical densities of HPV-31 specific DNA and major mRNA species were integrated. Time curves were established by plotting integrated values against number of passages for each treatment dose. The T50 (time required to reduce the level to 50% of control) was determined from the time curves from crossing points of time curves with a line parallel to the x-axis corresponding to 50% of integrals of untreated control sample.

[2] = system: HPV-31 specific RNA; assay: Short-term study: HPV-31 specific RNA expression (Northern blot); format: cell-based, human papilloma virus; conditions: 72 hrs
Description: (§3) Effect on HPV-31 specific DNA and RNA. HPV-31 infected cells (3×10^6) were dispensed into 14.5 cm dishes containing fresh E culture medium and 1×10^6 mitomycin C-treated J2 3T3 fibroblast feeders. After 6 hrs, fresh medium containing 0.85 g/L NaHCO3 and a test compound at a series of concentrations (0, 0.5, 1, 2, 4, 8, 16, and 32 μg/mL) were added. All samples were tested in duplicates at each concentration. After incubation at 37° C. for 72 hrs, the feeder cells were removed with 4 mM EDTA, and DNA and RNA was then isolated. The isolated DNA and RNA were analyzed in Southern and Northern Blot gels for HPV-31 specific sequences. Human A431 epithelial cancer cells were used as HPV-uninfected negative control. X-ray films were scanned and optical densities of HPV-31 specific DNA and major mRNA species were integrated.
(§4) Dose response curves were established by plotting integrated values against the concentrations of the test compound.

[3] = system: HPV-31 specific RNA; assay: Long-term study: HPV-31 specific RNA level (Northern blot); format: cell-based, human papilloma virus; conditions: for T50 RNA: at 10 μg/mL
Description: as §1, §2

[4] = system: HPV-31 specific DNA; assay: Short-term study: HPV-31 specific DNA (Southern blot); format: cell-based, human papilloma virus; conditions: at 32 μg/mL, 72 hrs
Description: as §3, §4

[5] = target: T1, phosphatidylcholine-specific phospholipase C (PC-PLC) (Bacillus cereus, UniProt P09598); assay: Amplex Red phosphatidylcholine-specific phospholipase C (PC-PLC) inhibition assay; format: biochemical, B. cereus; conditions: 30 min at 37° C., triplicate
T1 construct: purchased Invitrogen
T1 sequence (P09598 39-283 limits assumed): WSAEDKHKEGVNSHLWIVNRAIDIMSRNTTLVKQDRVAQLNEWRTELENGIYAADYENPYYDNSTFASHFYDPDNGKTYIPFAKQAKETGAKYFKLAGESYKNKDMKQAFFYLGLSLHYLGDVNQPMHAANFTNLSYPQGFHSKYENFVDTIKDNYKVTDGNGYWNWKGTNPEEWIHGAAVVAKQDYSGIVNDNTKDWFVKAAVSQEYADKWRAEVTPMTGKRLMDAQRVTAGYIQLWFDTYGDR
Description: (§5) The inhibitory activities of optically active potassium salts of (+)- and (−)-O-exo/C-exo-tricyclo [5.2.1.0^2,6]-dec-9-yl-xanthic acid 1A ((+)- and (−)-enantiomers 1A) against phosphatidylcholine-specific phospholipase C were evaluated, together with D609 and potassium salt of racemic O-exo/C-exo xanthic acid 1A (racemic 1A), using Amplex Red phosphatidylcholine-specific phospholipase C(PC-PLC) assay kit, which was obtained from Invitrogen (Calsbad, Calif.). D609 was obtained from Sigma Aldrich.
(§6) An Amplex Red stock solution (˜20 mM), a working reaction buffer, and a horseradish peroxidase stock solution (200 U/mL), a H2O2 working solution (20 mM), a choline oxidate stock solution (20 U/mL), an alkaline phosphatase stock solution (400 U/mL), and a B. cereus PC-PLC stock solution (10 U/mL) were prepared according to the instruction of the assay kit. The stock solution (100 mg/mL) for each test compound was also prepared by dissolving the compound in water 2 hr prior to the start of the experiment.
(§7) A working Amplex Red/HRP/lecithin solution was prepared by adding 200 μL of Amplex Red reagent stock solution, 100 μL of HRP stock solution, 200 μL of alkaline phosphatase stock solution, 100 μL of choline oxidase stock solution, and 78 μL of the lecithin solution to […] of the working reaction buffer. PC-PLC solution (0.2 U/mL) was prepared by diluting the PC-PLC stock solution with the working reaction buffer to the desired concentration.
(§8) The test compound (25 μL) at a serious of concentrations was pipetted into a 96 well plate. For uninhibited PC-PLC controls and non-PC-PLC controls, 25 μL of water was added. After the addition of 50 μL of the Amplex Red/HRP/lecithin working solution, the reaction was initiated by adding 25 μL of PC-PLC solution to each well. To the non-PC-PLC controls, 25 μL of water was added instead of PC-PLC solution. The experiment was performed in triplicate. The reactions were protected from light. After incubated for 30 min at 37° C., the reactions were measured with a fluorescence microplate reader using excitation at 550 nm and emission detection at 590 nm. The fluorescent data obtained were corrected for background fluorescence by subtracting the values obtained from the non-PC-PLC controls.

[6] = system: Calu-6 cells; assay: Cytotoxicity assay in Calu-6 cells (crystal violet); format: cell-based; conditions: 48 hr
Description: (§9) Calu-6 cells and RITA cells were grown in DMEM cell culture medium containing 10% fetal calf serum in CO2 incubator under 5% CO2 at 37° C. with 100% humidity.
(§10) For cytotoxicity assay, Calu-6 cells were seeded in 96 well plates at a density of 3×10^6 cells per plate in the DMEM cell culture medium. The plates were incubated at 37° C. in the presence of 5% CO2 for 24 hr. The DMEM cell culture medium in the plates was exchanged with fresh DMEM cell culture medium containing test compounds at a series of concentrations. The plates were incubated at 37° C. in the presence of 5% CO2 for 48 hr. The plates were then washed with PBS, fixed with 3% formaldehyde solution containing 0.9% NaCl for 1 min, washed by water for 10 sec, and dried overnight. For detection, the plates were stained with crystal violet solution for 5 min at room temperature, washed 5 times with water, and dried at room temperature overnight. After adding ethanol/acetic acid (99:1, v/v, […]) to each well, the plates were measured at 595 nm using an ELISA reader. A dose response curve was obtained for each compound tested by plotting the mean values of the optical densities against compound concentration.

[7] = system: HPV-31-infected CIN612 9E keratinocytes; assay: Long-term study: cell proliferation and morphology of CIN612 9E cells over 9 passages; format: cell-based
Description: as §1
Effect on cell proliferation. Cell numbers in the dishes harvested were determined in a Neubauer hematocytometer. The multiplication factor was determined at every step of passage. The cell number of each culture at the end of the passage was divided by the number of seeded cells at the start of each passage. The end point was reached when keratinocytes treated with a test compound stopped growing. Stop of cell growth was defined as a multiplication factor of no greater than 1.

[8] = system: phosphatidylcholine-specific phospholipase C (PC-PLC); conditions: Amtmann 1996; Muller-Decker 1989; cited from earlier work
[9] = Cytotoxicity assay in Calu-6 cells; format: cell-based; conditions: human, 37° C., read-out: LD50
Description: as §9, §10

[10] = target: T2, B. cereus PC-PLC (phosphatidylcholine-specific phospholipase C) (Bacillus cereus, UniProt P09598); assay: Inhibition of phosphatidylcholine-specific phospholipase C (Amplex Red PC-PLC assay kit); format: biochemical
T2 construct: purchased Invitrogen
T2 sequence (P09598 39-283 limits assumed): as above
Description: as §5, §6, §7
as §8, with “To the non-PC-PLC controls, 25 μL of water was added instead of PC-PLC solution. The experiment was performed in triplicate. The reactions were protected from light.” left out

[11] = system: Herpes simplex virus type-2 (HSV-2); assay: Inhibition of HSV-2 (plaque assay; Calu-6 infected, RITA cells for plaques); format: cell-based
Description: as §9
For HSV-2 inhibition, Calu-6 cells were seeded in 96 well plates at a density of 3×10^6 cells per plate in the DMEM cell culture medium. The plates were incubated at 37° C. in the presence of 5% CO2 for 24 hr. The DMEM cell culture medium in the plates was removed and the cells were infected with Herpes simplex virus type-2 at 50 plaque forming units per well. After incubation at 37° C. for 60 min, test compounds in DMEM cell culture medium at a series of concentrations were added. The plates were incubated at 37° C. in the presence of 5% CO2 for 48 hr. The plates were frozen at −20° C. prior to further analysis. After thawing at room temperature, supernatants containing infectious virus particles were prepared by centrifuging the supernatant from each well at 18,000 g at 4° C. for 5 min. The supernatant was further diluted before assay.
RITA cells were seeded in 24 well Linbra plates at a density of 4×10^6 cells per plate in 2 mL of DMEM cell culture medium. The plates were incubated at 37° C. in the presence of 5% CO2 for 24 hr. After the removal of the cell culture medium, 0.1 mL of the diluted supernatants was added and the plates were incubated at 37 C for 1 hr. DMEM cell medium containing 10% fetal calf serum and 0.5% methyl cellulose was added and the plates were incubated at 37 for 48 hr. The plates were then washed with PBS, fixed with 3% formaldehyde solution containing 0.9% NaCl for 1 min, washed by water for 10 sec, and dried overnight. For detection, the plates were then stained with crystal violet solution for 5 min at room temperature, washed 5 times with water, and dried at room temperature overnight. The number of plaques was determined macroscopically. The number of plaques per well was then multiplied with the dilution factor. Dose response curves were obtained by plotting the number of plaques/0.1 mL against compound concentration. The therapeutic index was also calculated for each compound by dividing LD50 with IC50.

[12] = system: bovine papilloma virus type I (BPV-1)-transformed HEF (HEF-BPV); assay: Inhibition of bovine papilloma virus, BPV-infected hamster embryo fibroblasts (HEF) cell proliferation assay; format: cell-based; conditions: Bos taurus papillomavirus 1; HEF-BPV, 72 hr, 37° C., pH 6.8; read-out: IC50
Description: Briefly, hamster embryo fibroblasts and bovine papilloma virus type I (BPV-1)-transformed HEF (HEF-BPV) were grown in Eagle's basal medium. […] and HEF cells were seeded in 96-well plates at a density of 0.5×10^6 cells per plate in DMEM cell culture medium containing 10% fetal calf serum at pH 6.8. The plates were then incubated in the presence of 5% CO2 in 100% humidity at 37° C. After 6 hr, the cell culture medium in the plates was exchanged with fresh DMEM cell culture medium containing test compounds at a series of concentrations. The plates were incubated at 37° C. for additional 72 hr. Cells in the plates were then washed with PBS, fixed with 3% formaldehyde solution containing 0.9% NaCl for 1 min, washed by water for 10 sec, and dried overnight. For detection, the plates were stained with crystal violet solution for 5 min at room temperature, washed 5 times with water, and dried at room temperature overnight. After adding ethanol/acetic acid (99:1, v/v, […]) to each well, the plates were measured at 595 nm using an ELISA reader.

Compound: S=C(S)OC1CC2CC1C1CCCC21 (single isomer, unassigned; enantiomer 1a) [(−)-Enantiomer 1A, (−)-O-exo/C-exo-tricyclo[5.2.1.0^2,6]-dec-9-yl-xanthic acid 1A]
- number of viral genomes per cell remaining ([1]; 10 μg/mL, after 6 passages): < 5%
- viral DNA remaining ([1]; 10 μg/mL, after 9 passages): < 1%
- reduction of the number of viral genomes per cell ([1]; 10 μg/mL, after a single passage): more than 50%
- T50 DNA ([1]; listed as (−)-enantiomer 1A): < 1 passages
- T50 DNA ([1]; listed as Cmpd 1A): <1 passages
- IC50 on the inhibition of HPV-31 specific RNA expression [2]: 10.7 µg/mL
- viral RNA remaining ([3]; 10 μg/mL, after 9 passages): < 1%
- T50 RNA ([3]; listed as (−)-enantiomer 1A): < 1 passages
- T50 RNA ([3]; listed as Cmpd 1A): <1 passages
- inhibition of HPV-31 specific DNA [4]: 37.5%
- IC50 [5]: 3.62 ± 0.17 µg/mL (≈ 15.9 µM)
- LD50 [6]: 94.32 ± 7.33 µg/mL
- multiplication factor ([7]; 3.3 μg/mL, passage 1): 2.9
- multiplication factor ([7]; 3.3 μg/mL, passage 9): 1.1
- multiplication factor ([7]; 10 μg/mL, from passage 7 on): < 1
- multiplication factor ([7]; 10 μg/mL, passage 5): 2.4
- multiplication factor ([7]; 10 μg/mL, passage 6): 1.3
- multiplication factor ([7]; 10 μg/mL, passage 9): 0.1

Compound: S=C(S)OC1CC2CC1C1CCCC21 (centres unmarked) [Compound D609, tricyclodecan-9-yl-xanthogenate]
- inhibition of phosphatidylcholine-specific phospholipase C [8]: specific inhibitor
- CC50 at 48 h [9]: 105 ± 22 µg/mL (≈ 461 µM)
- IC50 [10]: 89.7 µM
- IC50 [5]: 20.49 ± 1.99 µg/mL (≈ 89.7 µM)
- LD50 [6]: 105.18 ± 21.97 µg/mL
- IC50 ([11]; Human alphaherpesvirus 2, Calu-6 cells, 48 hr, 50 plaque forming units per well, read-out: IC50): 30.2 ± 6.77 µg/mL (≈ 132 µM)
- Therapeutic Index ([11]; LD50 (Calu-6) divided by IC50 (HSV-2), 2880 min): 3.5
- IC50 [12]: 21.6 ± 1.85 µg/mL (≈ 94.8 µM)
